Changes are numbered by the printed parent chain.
What was measured:
ckP2X7 T202W = format: cell-based, chicken
rP2X2 K212A = biological target: T1, rP2X2 K212A (Rattus norvegicus, UniProt P49653, K212A); assay: Conventional whole-cell patch recording of ATP-evoked currents, transfected HEK293 cells; format: cell-based
T1 construct: expressed in transfected cells; host or cells: HEK293
T1 sequence (P49653 1-472 K212A): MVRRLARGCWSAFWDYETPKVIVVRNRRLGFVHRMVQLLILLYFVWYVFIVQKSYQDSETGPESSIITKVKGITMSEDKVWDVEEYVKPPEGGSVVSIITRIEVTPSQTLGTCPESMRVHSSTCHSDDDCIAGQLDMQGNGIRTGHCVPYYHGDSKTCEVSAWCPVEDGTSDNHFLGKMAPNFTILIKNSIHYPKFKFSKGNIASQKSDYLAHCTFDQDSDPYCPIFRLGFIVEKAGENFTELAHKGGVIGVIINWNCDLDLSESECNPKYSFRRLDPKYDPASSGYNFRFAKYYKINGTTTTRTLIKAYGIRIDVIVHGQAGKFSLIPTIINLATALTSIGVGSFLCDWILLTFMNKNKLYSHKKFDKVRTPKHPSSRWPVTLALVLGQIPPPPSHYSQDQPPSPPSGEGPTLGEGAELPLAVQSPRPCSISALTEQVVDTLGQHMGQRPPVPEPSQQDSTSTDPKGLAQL
Description: (§1) As we described previously, [41], [42], human embryonic kidney (HEK 293) cells were purchased from Shanghai Institutes for Biological Sciences and cultured in Dulbecco's Modified Eagle Medium supplemented with 10% fetal bovine serum (FBS), 1% penicillin-streptomycin and 1% GlutaMAX™ at 37 °C, 5% CO2 and 95% air in a humidified environment. Plasmids were transfected into cells using transfection agents containing two solutions (Solution A: 250 mM CaCl2 in pure water; Solution B (in mM): 1.5 Na2HPO4, 140 NaCl and 50 HEPES, pH adjusted to 6.96). After mixing 2.5–3 μg of the plasmid and solution A, the mixture was added dropwise to an equal volume of solution B, followed by stirring with a pipette tip. The mixture was left to stabilize at room temperature for 3–5 min and then added to the cell culture dish. After 6 h of transfection, the medium in the culture dish was replaced with fresh medium.
(§2) Nystatin (0.15 mg/mL) was diluted with a high potassium internal solution containing (in mM): 75 K2SO4, 55 KCl, 5 MgSO4, and 10 HEPES (pH 7.4). The ckP2X7 and rP2X2 receptor currents were recorded using conventional whole-cell patch configuration. At 24–48 h after transfection, HEK293 cells were recorded using an Axopatch 200B amplifier (Molecular Devices, USA) at room temperature (25 ± 2 °C), with holding a potential of − 60 mV. Current data were sampled at 10 kHz, filtered at 2 kHz, and analyzed using the PCLAMP 10 software (Molecular Devices, USA). HEK293 cells were bathed in standard extracellular solution (SS) containing (in mM): 150 NaCl, 5 KCl, 2 CaCl2, 1 MgCl2, 10 glucose, and 10 HEPES (pH 7.4, by Tris-base). For conventional whole-cell recordings, the pipette solution consisted of (in mM): 120 KCl, 30 NaCl, 0.5 CaCl2, 1 MgCl2, 5 EGTA, and 10 HEPES (pH 7.4, by Tris-base). ATP and drugs were dissolved in standard extracellular solution and administered with a Y-tube.
(§3) All electrophysiological recordings were analyzed using Clampfit 10.6 (Molecular Devices). Pooled data were expressed as mean and standard error of the mean (s.e.m.). Comparisons between multiple independent groups were performed using one-way ANOVA followed by Dunnett's tests. Comparisons between two groups were made using paired (before and after engineered disulfide bond cross-linking) or unpaired Student’s t tests, as appropriate.

rP2X2 V119W/H120W = biological target: T2, rP2X2 V119W/H120W (Rattus norvegicus, UniProt P49653, H120W/V119W); assay: as above; format: cell-based
T2 construct: expressed in transfected cells; host or cells: HEK293
T2 sequence (P49653 1-472 V119W/H120W): T1 sequence (P49653 1-472 K212A) with V119W, H120W, A212K
Description: as §1, §2, §3

rP2X2 WT = biological target: T3, rP2X2 WT (Rattus norvegicus, UniProt P49653); assay: as above; format: cell-based
T3 construct: expressed in transfected cells; host or cells: HEK293
T3 sequence (P49653 1-472): T1 sequence (P49653 1-472 K212A) with A212K
Description: as §1, §2, §3

F 174 A mutant of hP2X3 = tested on: F 174 A mutant of hP2X3; parameters: method as in PMID 24223907; settings: hP2X3 F174A; cited from earlier work
rP2X3 WT = biological target: T4, rP2X3 WT (Rattus norvegicus, UniProt P49654); assay: Nystatin perforated patch recording of ATP-evoked currents, transfected HEK293 cells; format: cell-based; settings: Hill 1 fit, mean ± s.e.m.
T4 construct: EGFP (only implied by the anti-EGFP blot of rP2X3 plasmids); expressed in transfected cells; host or cells: HEK293
T4 sequence (P49654 1-397): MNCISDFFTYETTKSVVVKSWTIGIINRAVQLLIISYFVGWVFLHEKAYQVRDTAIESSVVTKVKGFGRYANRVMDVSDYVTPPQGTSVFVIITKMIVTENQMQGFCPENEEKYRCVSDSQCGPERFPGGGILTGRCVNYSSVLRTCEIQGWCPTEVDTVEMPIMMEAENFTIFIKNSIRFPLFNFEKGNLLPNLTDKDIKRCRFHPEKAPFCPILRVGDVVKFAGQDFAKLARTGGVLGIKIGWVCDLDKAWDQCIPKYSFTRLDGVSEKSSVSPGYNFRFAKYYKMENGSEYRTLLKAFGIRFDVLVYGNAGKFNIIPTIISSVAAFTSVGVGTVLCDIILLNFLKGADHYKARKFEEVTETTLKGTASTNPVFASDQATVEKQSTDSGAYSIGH
Description: As we described previously, [41], [42], human embryonic kidney (HEK 293) cells were purchased from Shanghai Institutes for Biological Sciences and cultured in Dulbecco's Modified Eagle Medium supplemented with 10% fetal bovine serum (FBS), 1% penicillin-streptomycin and 1% GlutaMAX™ at 37 °C, 5% CO2 and 95% air in a humidified environment. Plasmids were transfected into cells using transfection agents containing two solutions (Solution A: 250 mM CaCl2 in pure water; Solution B (in mM): 1.5 Na2HPO4, 140 NaCl and 50 HEPES, pH adjusted to 6.96). […]
Nystatin (0.15 mg/mL) was diluted with a high potassium internal solution containing (in mM): 75 K2SO4, 55 KCl, 5 MgSO4, and 10 HEPES (pH 7.4). The ckP2X7 and rP2X2 receptor currents were recorded using conventional whole-cell patch configuration. At 24–48 h after transfection, HEK293 cells were recorded using an Axopatch 200B amplifier (Molecular Devices, USA) at room temperature (25 ± 2 °C), with holding a potential of − 60 mV. Current data were sampled at 10 kHz, filtered at 2 kHz, and analyzed using the PCLAMP 10 software (Molecular Devices, USA). […]
All electrophysiological recordings were analyzed using Clampfit 10.6 (Molecular Devices). Pooled data were expressed as mean and standard error of the mean (s.e.m.). […]

rP2X3 K201C/V274C = biological target: T5, rP2X3 K201C/V274C (Rattus norvegicus, UniProt P49654, K201C/V274C); assay: as above; format: cell-based; settings: Hill 1 fit
T5 construct: EGFP (only implied by the anti-EGFP blot of rP2X3 plasmids); expressed in transfected cells; host or cells: HEK293
T5 sequence (P49654 1-397 K201C/V274C): T4 sequence (P49654 1-397) with K201C, V274C

hP2X3 WT = biological target: T6, hP2X3 WT (Homo sapiens, UniProt P56373); assay: as above; format: cell-based; settings: Hill 1 fit
T6 construct: host or cells: HEK293
T6 sequence (P56373 1-397): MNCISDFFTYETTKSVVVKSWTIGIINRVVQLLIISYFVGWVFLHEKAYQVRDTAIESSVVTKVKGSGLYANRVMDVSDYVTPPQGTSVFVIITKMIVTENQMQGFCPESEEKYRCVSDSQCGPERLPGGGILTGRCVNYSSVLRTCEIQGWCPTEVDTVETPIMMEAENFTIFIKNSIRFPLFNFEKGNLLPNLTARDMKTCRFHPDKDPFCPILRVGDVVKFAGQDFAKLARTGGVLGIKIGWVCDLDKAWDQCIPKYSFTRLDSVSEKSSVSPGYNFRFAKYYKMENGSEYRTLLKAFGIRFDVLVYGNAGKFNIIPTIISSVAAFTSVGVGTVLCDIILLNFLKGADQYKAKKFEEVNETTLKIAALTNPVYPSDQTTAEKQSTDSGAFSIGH

hP2X3 K113A = biological target: T7, hP2X3 K113A (Homo sapiens, UniProt P56373, K113A); assay: as above; format: cell-based
T7 construct: expressed in transfected cells; host or cells: HEK293
T7 sequence (P56373 1-397 K113A): T6 sequence (P56373 1-397) with K113A

hP2X3 R204A = biological target: T8, hP2X3 R204A (Homo sapiens, UniProt P56373, R204A); assay: as above; format: cell-based
T8 construct: expressed in transfected cells; host or cells: HEK293
T8 sequence (P56373 1-397 R204A): T6 sequence (P56373 1-397) with R204A

## Nc1ncnc2c1ncn2[C@@H]1O[C@H](COP(=O)(O)OP(=O)(O)OP(=O)(O)O)[C@H]2OC3(O[C@H]21)C([N+](=O)[O-])=CC(=[N+]([O-])[O-])C=C3[N+](=O)[O-] (stereo partly shown) [TNP-ATP, 2',3'-O-(2,4,6-trinitrophenyl)-ATP]
ckP2X7 T202W; 1 mM ATP
  enhancement of apparent affinity of TNP-ATP vs WT: about 38 fold
rP2X2 K212A
  IC50: 15.8 ± 2 µM
rP2X2 K212A; rP2X2 K212A vs rP2X2 WT
  reduction of potency of inhibition by TNP-ATP vs WT: ~5 fold
rP2X2 V119W/H120W
  IC50: 24.9 ± 5 µM
rP2X2 V119W/H120W; rP2X2 V119W/H120W vs rP2X2 WT
  reduction of sensitivity to TNP-ATP inhibition vs WT: ~8 fold
rP2X2 WT
  IC50: 3.14 ± 0.95 µM
F 174 A mutant of hP2X3
  effect of mutation on inhibition by TNP-ATP: does not alter the inhibition

## Nc1ncnc2c1ncn2[C@@H]1O[C@H](COP(=O)(O)OP(=O)(O)OP(=O)(O)O)[C@@H](O)[C@H]1O [ATP]
rP2X3 WT
  EC50: 0.832 ± 0.143 µM
rP2X3 K201C/V274C
  EC50: 12.9 ± 2.7 µM
hP2X3 WT
  EC50: 0.767 ± 0.099 µM
hP2X3 K113A
  EC50: 0.872 ± 0.232 µM
hP2X3 R204A
  EC50: 1.22 ± 0.22 µM
ckP2X7 T202W
  reduction in affinity to ATP vs WT: approximately 60 fold
rP2X2 K212A; rP2X2 K212A
  EC50: 9.83 ± 0.34 µM
rP2X2 V119W/H120W; rP2X2 V119W/H120W
  EC50: 221 ± 36 µM
rP2X2 WT; rP2X2 WT
  EC50: 5.39 ± 0.11 µM
